This note sets out measurements from patent publication US11401278B2, “Macrocyclic indole derivatives” (The Broad Institute, Inc., priority 2017, dated 2022).

In one test the test system is MV-4-11. Nature of the test: Antiproliferation assay (Assay 7), MV-4-11. Type of test: cell-based. The following applies: CellTiter-Glo, several values per example. The procedure, abridged: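 Luminescent ATP-based viability (CellTiter-Glo) measured after 72 hours of compound treatment at 37° C, alongside a time-zero plate read on the day of plating.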
On the technique in general: In ATP-based viability assays light output follows the ATP content of the culture.

The target of a further test is BCL-XL (Homo sapiens (Human), UniProt Q07817). Nature of the test: Protein-protein interaction assay BCL-XL/Bad BH3 peptide (BCL-XL assay, TR-FRET). Format: binding. The conditions noted are these: His-BCL-XL / Bad BH3 peptide, median. The procedure:
Assay 2 Protein-Protein Interaction Assay: BCL-XL/Bad BH3 Peptide (BCL-XL Assay)
The dose-dependent inhibition by the compounds described in this invention of the interaction between BCL-XL and the BH3 domain of Bad (both human) was determined using a steady state binding competition assay with time-resolved fluorescence energy transfer (TR-FRET) readout. For that purpose BCL-XL (amino acids 1-212, C-terminal fused to a hexahistidine (6×His) tag (SEQ ID 3) and a synthetic Bad BH3-derived peptide of sequence Biotin-PEG2-PEG2-NLWAAQRYGRELRR-Nle-SDEFVDSFKK-amide (SEQ ID 4) served as protein receptor and tracer ligand respectively. The recombinant BCL-XL protein (expressed in E. coli) was purchased from BPS Bioscience (San Diego, Calif., USA). The Bad BH3-derived peptide can be obtained from e.g. Biosyntan (Berlin, Germany).
In the assay 11 different concentrations of each compound (0.1 nM, 0.33 nM, 1.1 nM, 3.8 nM, 13 nM, 44 nM, 0.15 μM, 0.51 μM, 1.7 μM, 5.9 μM and 20 μM) were typically measured as duplicates in the same microtiter plate. For that, 100-fold concentrated DMSO solutions were prepared by serial dilutions (1:3.4) of a 2 mM stock solution in a clear, 384-well microtiter plate (Greiner Bio-One, Frickenhausen, Germany). From there, 50 nl were transferred in a dark test plate (Greiner Bio-One, Frickenhausen, Germany). The assay was initiated by addition of 2 μl of a 2.5-fold concentrated His-BCL-XL solution (usually for a 1 nM end concentration in 5 μl reaction volume) in aqueous assay buffer [50 mM Tris/HCl pH 7, 100 mM sodium chloride (NaCl), 50 mM potassium fluoride (KF), 0.005% Tween-20, 2 mM DTT, 0.1% bovine gamma globulin (BGG)] to the compounds in the assay plate. This was followed by a 10-minute incubation step at 22° C. for pre-equilibration of the putative complex between His-BCL-XL and the compounds. After that, 3 μl of a 1.67-fold concentrated solution (in assay buffer) consisting of Bad BH3-derived peptide (1 nM end concentration) and TR-FRET detection reagents [1.67 nM anti-His-Eu cryptate and 1.67 nM streptavidin-XL665 (both from Cisbio Bioassays, Codolet, France)], were added.
The mixture was incubated in the dark for one hour at 22° C. and then overnight at 4° C. The formation of BCL-XL/Bad complexes was determined by measuring the resonance energy transfer of the anti-His- Eu-cryptate antibody to the streptavidin-XL665 present in the reaction. For that purpose, the fluorescence emission at 620 nm and 665 nm after excitation at 330-350 nm was measured in a TR-FRET measuring instrument, for instance a Rubystar or a Pherastar (both from BMG Lab Technologies, Offenburg, Germany) or a Viewlux (Perkin-Elmer). The ratio of the emission at 665 nm and at 622 nm was used as indicator of the amount of BCL-XL/Bad complexes present.
The resulting data (ratio) were normalized, taking 0% inhibition as the mean value of control measurements (usually 32 data points) where all reagents were included. In this case 50 nl DMSO were used instead of compounds. A 100% inhibition corresponded to the mean value of control measurements (usually 32 data points) where all reagents except BCL-XL were included. IC50 values were determined by regression analysis based on a 4 parameter equation (minimum, maximum, IC50, Hill; Y=Max+(Min−Max)/(1+(X/IC50)^HiII) using the Screener Software (Genedata).
Background: In TR-FRET formats the signal depends on donor and acceptor labels being close together.

Another test concerns SUDHL5. Kind of test: Induction of caspase-3/7 activity (Assay 4), SUDHL5. Type of test: cell-based. The following applies: caspase-3/7 induction, median. The procedure, abridged: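 Caspase-3/7 activity measured by Caspase-Glo 3/7 luminescence in DLBCL cells after 3 h compound treatment at 37 °C. Medium-only background subtracted. EC50 fitted with C0 fixed at 1 and top set to the reference compound's plateau/max induction.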

Where [1] appears, read: Homo sapiens, MV4-11, 72 h, read-out: Antiproli MV-4-11 [M] IC50.
Where [2] appears, read: 72 hours, read-out: Antiproli MV-4-11 [M] IC50.

Molecules are shown by their SMILES. Values joined by “and” are separate entries in the source; they are usually repeats but may differ in a detail not shown here. Equal entries are not always repeated. Structures can show the parent of a compound that is named as a salt. Where two headings read alike, the source gives them in different places. Some results are limits rather than exact numbers.

Sequence of BCL-XL (Q07817 other isoform, or with tags, fused parts or gaps): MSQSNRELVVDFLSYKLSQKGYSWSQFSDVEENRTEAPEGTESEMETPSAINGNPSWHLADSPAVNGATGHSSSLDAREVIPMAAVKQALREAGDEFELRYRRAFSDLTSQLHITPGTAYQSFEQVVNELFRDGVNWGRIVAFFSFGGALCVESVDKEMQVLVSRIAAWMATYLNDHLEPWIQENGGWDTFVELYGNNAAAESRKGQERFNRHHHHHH

`Cc1c2c(nn1C)CN(CCN1CCOCC1)S(=O)(=O)CCCn1c(C(=O)O)c(CCCOc3cccc4ccccc34)c3cccc-2c31` (single isomer, unassigned; enantiomer 2) [Example 3, 2,3-Dimethyl-14-[2-(morpholin-4-yl)ethyl]-7-{3-[(naphthalen-1-yl)oxy]propyl}-13,13-dioxo-10,11,12,13,14,15-hexahydro-2H-13λ^6-pyrazolo[3′,4′:4,5][1,2,8]thiadiazacycloundecino-[6,7,8-hi]indole-8-carboxylic acid-N-ethylethanamine salt (Enantiomer 2)]: the 50% inhibitory concentration (IC50) – broadly, the concentration needed to halve the response being measured – in the test with MV-4-11 (72 hours, listed as 03, read-out: Antiproli MV-4-11 [M] IC50) is 1.54e-05 M; on BCL-XL it was more than 20 µM. Besides, in the test with SUDHL5 (3 hours), the 50% effective concentration (EC50) (as a rule, the concentration that produces a half-maximal response) is more than 33 µM.

On to `CCc1c2c(nn1C)CN(C)S(=O)(=O)CCCn1c(C(=O)O)c(CCCOc3cccc4c3CCC4)c3ccc(Cl)c-2c31` [Example 21, (rac)-13-Chloro-1-(3-((2,3-dihydro-1H-inden-4-yl)oxy)propyl)-12-ethyl-8,11-dimethyl-5,6,9,11-tetrahydro-4H,8H-pyrazolo[3′,4′:4,5][1]thia[2,8]diazacycloundecino[6,7,8-hi]indole-2-carboxylic acid 7,7-dioxide], for which the IC50 in the test with MV-4-11 (setting [1]) is 2.1e-06 M; on BCL-XL, more than 20 µM. The compound also gave an EC50 in the test on SUDHL5 (Homo sapiens, SU-DHL-5, 3 h) of 0.65 µM.

`Cc1c2c(nn1C)CN(C)S(=O)(=O)CCCn1c(C(=O)O)c(CCCOc3cccc4ccccc34)c3ccc(Cl)c-2c31` (racemic) [Example 4, (rac)-4-Chloro-2,3,14-trimethyl-7-{3-[(naphthalen-1-yl)oxy]propyl}-13,13-dioxo-10,11,12,13,14,15-hexahydro-2H-13λ^6-pyrazolo[3′,4′:4,5][1,2,8]thiadiazacycloundecino-[6,7,8-hi]indole-8-carboxylic acid]: the concentration for half-maximal inhibition (IC50) in the test on MV-4-11 (72 hours, listed as 04, read-out: Antiproli MV-4-11 [M] IC50) was 1.58e-06 M and 1.47e-06 M and 1.25e-06 M; at BCL-XL it was more than 20 µM. In addition, in the test with SUDHL5 (3 hours), the concentration giving a half-maximal response (EC50) was determined as 0.63 µM.

Turning to `CCc1c2c(nn1C)CN(CCCN1CCCC1)S(=O)(=O)CCCn1c(C(=O)O)c(CCCOc3cccc4ccccc34)c3cccc-2c31` (racemic) [Example 16, (rac)-12-Ethyl-11-methyl-1-(3-(naphthalen-1-yloxy)propyl)-8-(3-(pyrrolidin-1-yl)propyl)-5,6,9,11-tetrahydro-4H,8H-pyrazolo[3′,4′:4,5][1]thia[2,8]diazacycloundecino[6,7,8-hi]indole-2-carboxylic acid 7,7-dioxide], the 50% inhibitory concentration (IC50) in the test with MV-4-11 (setting [1]) was more than 3.3e-05 M; against BCL-XL, more than 20 µM. Further, a half-maximal effect with SUDHL5 (Homo sapiens, SU-DHL-5, 3 h) (EC50) was put at 32 µM.

Turning to `CCc1c2c(nn1C)CN(C)S(=O)(=O)CCCn1c(C(=O)O)c(CCCOc3ccc(F)c4ccccc34)c3ccc(F)c-2c31` (racemic) [Example 35, (rac)-12-Ethyl-13-fluoro-1-(34(4-fluoronaphthalen-1-yl)oxy)propyl)-8,11-dimethyl-5,6,9,11-tetrahydro-4H,8H-pyrazolo[3′,4′:4,5][1]thia[2,8]diazacycloundecino[6,7,8-hi]indole-2-carboxylic acid 7,7-dioxide], the concentration for half-maximal inhibition (IC50) in the test with MV-4-11 (setting [2]) was 8.18e-06 M; in the test on MV-4-11 (setting [1]), 4.34e-06 M; against BCL-XL it was more than 20 µM. The compound further returned a 50% effective concentration (EC50) in the test with SUDHL5 (Homo sapiens, SU-DHL-5, 3 h) of 1.2 µM.

On to `CCc1c2c(nn1C)C(C)N(C)S(=O)(=O)CCCn1c(C(=O)O)c(CCCOc3cccc4ccccc34)c3cccc-2c31` (racemic) [Example 18, 12-Ethyl-8,9,11-trimethyl-1-(3-(naphthalen-1-yloxy)propyl)-5,6,9,11-tetrahydro-4H,8H-pyrazolo[3′,4′:4,5][1]thia[2,8]diazacycloundecino[6,7,8-hi]indole-2-carboxylic acid 7,7-dioxide (Mixture of Stereoisomers)], for which the IC50 was 3.75e-06 M with MV-4-11 (setting [1]) and more than 20 µM on BCL-XL. Further, in the test with SUDHL5 (Homo sapiens, SU-DHL-5, 3 h), a half-maximal effect (EC50) was put at 3.8 µM.

Turning to `CCc1c2c(nn1C)CN(C)S(=O)(=O)CCCn1c(C(=O)O)c(CCCOc3ccc(F)c4ccccc34)c3ccc(Cl)c-2c31` [Example 24, (rac)-13-Chloro-12-ethyl-1-(34(4-fluoronaphthalen-1-yl)oxy)propyl)-8,11-dimethyl-4,5,6,8,9,11-hexahydropyrazolo[3′,4′:4,5][1,2,8]thiadiazacycloundecino[6,7,8-hi]indole-2-carboxylic acid 7,7-dioxide], the half-maximal inhibitory concentration (IC50) with MV-4-11 (setting [1]) was 2.5e-06 M; against BCL-XL, more than 20 µM. This compound also had a half-maximal effective concentration (EC50) in the test on SUDHL5 (Homo sapiens, SU-DHL-5, 3 h) of 1.1 µM.

For the compound `Cc1cc(OCCCc2c(C(=O)O)n3c4c(c(F)ccc24)-c2c(nn(C)c2C)CN(C)S(=O)(=O)CCC3)cc(C)c1Cl` (racemic) [Example 28, (rac)-1-(3-(4-Chloro-3,5-dimethylphenoxy)propyl)-13-fluoro-8,11,12-trimethyl-5,6,9,11-tetrahydro-4H,8H-pyrazolo[3′,4′:4,5][1]thia[2,8]diazacycloundecino[6,7,8-hi]indole-2-carboxylic acid 7,7-dioxide], the results for the IC50 with MV-4-11 (setting [1]) and against BCL-XL were 7.54e-06 M and more than 20 µM, respectively. Besides, in the test with SUDHL5 (Homo sapiens, SU-DHL-5, 3 h), a half-maximal effect (EC50) was put at 2 µM.

As for `CCc1c2c(nn1C)CN(C)S(=O)(=O)CCCn1c(C(=O)O)c(CCCOc3cc(C)c(Cl)c(C)c3)c3ccc(F)c-2c31` (racemic) [Example 33, (rac)-1-(3-(4-Chloro-3,5-dimethylphenoxy)propyl)-12-ethyl-13-fluoro-8,11-dimethyl-5,6,9,11-tetrahydro-4H,8H-pyrazolo[3′,4′:4,5][1]thia[2,8]diazacycloundecino[6,7,8-hi]indole-2-carboxylic acid 7,7-dioxide], the IC50 was 4.62e-06 M with MV-4-11 (setting [1]) and more than 20 µM against BCL-XL. Besides, in the test with SUDHL5 (Homo sapiens, SU-DHL-5, 3 h), the concentration giving a half-maximal response (EC50) came out at 1.6 µM.

On to `CCc1c2c(nn1C)CN(C)S(=O)(=O)CCCn1c(C(=O)O)c(CCCOc3cccc4ccccc34)c3ccc(F)c-2c31` (racemic) [Example 31, (rac)-12-Ethyl-13-fluoro-8,11-dimethyl-1-(3-(naphthalen-1-yloxy)propyl)-5,6,9,11-tetrahydro-4H,8H-pyrazolo[3′,4′:4,5][1]thia[2,8]diazacycloundecino[6,7,8-hi]indole-2-carboxylic acid 7,7-dioxide], for which the figures for the IC50 in the test with MV-4-11 (setting [2]), with MV-4-11 (setting [1]) and against BCL-XL were 5.51e-06 M, 4.7e-06 M and more than 20 µM, respectively. In the test with SUDHL5 (Homo sapiens, SU-DHL-5, 3 h), this compound yielded an EC50 of 0.8 µM.

On to `CCc1c2c(nn1C)CN(C)S(=O)(=O)CCCn1c(C(=O)O)c(CCCOc3cccc4c3CCCC4)c3ccc(Cl)c-2c31` [Example 23, (rac)-13-Chloro-12-ethyl-8,11-dimethyl-1-(3-((5,6,7,8-tetrahydronaphthalen-1-yl)oxy)propyl)-4,5,6,8,9,11-hexahydropyrazolo[3′,4′:4,5][1,2,8]thiadiazacycloundecino[6,7,8-hi]indole-2-carboxylic acid 7,7-dioxide], for which the IC50 was 1.96e-06 M with MV-4-11 (setting [1]) and more than 20 µM at BCL-XL. In the test on SUDHL5 (Homo sapiens, SU-DHL-5, 3 h), this compound showed an EC50 of 1.3 µM.
